Here are results for seven compounds from patent EP0513240B1, “LIQUID HARD SURFACE DETERGENT COMPOSITIONS CONTAINING ZWITTERIONIC DETERGENT SURFACTANT AND MONOETHANOLAMINE AND/OR BETA-AMINOALKANOL” (THE PROCTER & GAMBLE COMPANY, priority 1990, dated 1991).

The structures appear in SMILES notation. Marks after values point to notes of the source that are not given here.

Assay in the first data set: not given
As to conditions: in 20°C water; values from published literature; cited from earlier work.
Take `CC(C)C(O)C(C)(C)CO` (stereo not shown) [2,2,4-Trimethyl-1,3-pentanediol]: the Solubility is 1.9 g/100g H2O.
With `CC(C)(O)CCC(C)(C)O` [2,5-Dimethyl-2,5-hexanediol], the Solubility is 14.3 g/100g H2O.
Take `CCCC(O)C(CC)CO` (stereo not shown) [2-Ethyl-1,3-hexanediol]: the Solubility is 4.2 g/100g H2O.

The next data set is described as follows: Solubility of selected diols in 20°C water. The class given is physicochemical. As to conditions: determined via laboratory measurements (values marked *). As for the experimental part: A particularly preferred type of solvent for these hard surface cleaner compositions comprises diols having from 6 to 16 carbon atoms in their molecular structure. Preferred diol solvents have a solubility in water of from about 0.1 to about 20 g/100 g of water at 20°C.
Regarding `CCCCCCC(O)CO` (stereo not shown) [1,2-Octanediol], the Solubility is on record as 1.0* g/100g H2O.
On the same count and under the same terms, to `OCC1CCC(CO)CC1` (stereo not shown) [1,4-Cyclohexanedimethanol] belongs 20.0* g/100g H2O.
Same read-out and setting: to `CC(O)(CO)c1ccccc1` (stereo not shown) [2-Phenyl-1,2-propanediol] belongs 12.0* g/100g H2O; to `OCC(O)c1ccccc1` (stereo not shown) [Phenyl-1,2-ethanediol], 12.0* g/100g H2O.
